Data taken from patent publication US11491127B2, “Therapeutic use of compounds” (UCL BUSINESS LTD, priority 2010, dated 2022).
Read-outs that look alike come from different tables or passages of the source.

Legend:
[1] = system: uptake of 3H arachidonic acid / palmitic acid into Dictyostelium cells; assay: Fatty acid uptake (3H radiolabel incorporation into cells); type: cell-based, Dictyostelium discoideum; conditions: for EC50: Dictyostelium
[2] = system: Dictyostelium development; assay: Dictyostelium development; type: cell-based, Dictyostelium discoideum; conditions: concentrations found in plasma of patients (0.28-0.7 mM)
Procedure: Screening of a REMI library was carried out as previously described (Kuspa & Loomis, 2006) using A×2 background, with VPA resistant mutants selected for the ability to develop in the presence of 1 mM VPA on R. planticola. Identification of the ablated gene, enabled the identified PLAa (DDB_G0278525; SEQ ID NO: 16) to be recapitulated using by homologous recombination of a knockout cassette. Primers used for amplifying region within the open reading frame of the gene were (5′ […] (SEQ ID NO: 17) and 3′ […] (SEQ ID NO: 18), cloned by pCR2.1 TOPO (Invitrogen Ltd)), cloned into pUC19 using EcoRI digestion, and Sinai digested fragment from pBLPblp (Falx et al, 2004) was inserted into the EcoRV site of the insert. Genetic ablation was confirmed by PCR analysis. […] Development images were observed using a Leica CLS 150× microscope and images recorded using QICAM FAST 1394 camera. Fatty acid activation was determined by the method established by Wilson et al. (Wilson et al, 1982) with slight modifications. […] The organic phase was discarded and the aqueous phase was washed six times with 300 μl of n-heptane to remove non-activated fatty acids before the radioactivity of the acyl-CoA thioester remaining in the aqueous phase was determined in 2 ml of Lumasafe™ Plus fluid (Lumac LSC, Groningen, The Netherlands) in a scintillation counter.

[3] = system: phosphoinositide (PIP and PIP2) turnover in Dictyostelium AX2 cells; assay: Dictyostelium phospholipid labelling (PIP and PIP2 turnover); type: cell-based, Dictyostelium discoideum; conditions: for activity at 500 µM: 0.1 h
Procedure: Phospholipid labelling was quantified using a Typhoon phosphor-imager. Even loading was determined using total lipid stain with copper sulphate.

[4] = Table 2; cited from earlier work
[5] = system: lipid droplets in Dictyostelium cells; assay: Bodipy fatty acid lipid droplet accumulation; type: cell-based, Dictyostelium discoideum; conditions: 0.5 mM VPA; bodipy-labelled lipid
[6] = system: PTZ-induced epileptiform activity in entorhinal cortex-hippocampal slices; assay: In vitro PTZ acute seizure model, entorhinal cortex-hippocampus slices; type: cell-based, rat; conditions: PTZ 2 mM, [K+] 6 mM; compounds equimolar 1 mM; 30 to 40 minutes after application
Procedure: The rats (p21) were decapitated after killing by intraperitoneal injection with an overdose of pentobarbitone (500 mg/kg). The brain was removed and placed in ice-cold sucrose solution in mM: NaCl 87, KCl 2.5, MgCl2 7, CaCl2 0.5, NaH2PO4 1.25, sucrose 75, glucose 25, equilibrated with 95% 02/5% CO2 (pH 7.4). Horizontal combined entorhinal cortex-hippocampus slices (350 μm) were prepared with a Leica vibratome (Leica V T1200S) and were then stored in an interface chamber that contained artificial cerebrospinal fluid solution (aCSF) containing in mM: NaCl 119, KCl 2.5, MgSO4 4, CaCl2 4, NaHCO326.2, NaH2PO4 1, glucose 11, and gassed with 95% O2/5% CO2. They were stored for over one hour before being transferred to a submersion recording chamber continually perfused with carbogenated aCSF for recording. Field potential recordings were made by placing glass microelectrodes (˜1-2 MΩ) filled with aCSF solution in stratum radiatum of CA1. Bipolar stimulating electrodes were positioned in the Schaffer collateral/commissural fibre pathway in stratum radiatum to confirm slice viability. In the PTZ acute seizure model, PTZ (2 mM) was added to the perfusate and [K+] was increased to 6 mM in order to induce epileptiform activity (Armand et al., 1998). In the low Mg^2+ acute seizure model, Mg^2+ free aCSF was applied to generate rhythmic short recurrent discharges. Novel anticonvulsants were applied once the frequency and amplitude of the epileptiform discharges were stable over a period of 10 min. Anticonvulsant effects were evaluated by measuring the variation of frequency of the discharges every minute. The data acquired from the 30 to 40 minutes after application novel anticonvulsants were compared by ANOVA followed by post-hoc testing using Tukey test, using SPSS statistical analysis.

[7] = system: inositol trisphosphate (InsP3) levels in Dictyostelium; conditions: Williams et al., 1999; cited from earlier work
[8] = system: release of 3H arachidonic acid / palmitic acid radiolabel from Dictyostelium cells; assay: Fatty acid release (3H radiolabel release from labelled cells); type: cell-based, Dictyostelium discoideum
[9] = cited from earlier work
[10] = 0.5 mM VPA, 6 min treatment (printed 6 mM)
[11] = 5×PI3K knockout mutant, 0.5 mM VPA, 9 min
[12] = PIPKinA knockout mutant, 0.5 mM VPA, 9 min
[13] = cells lacking phospholipase C gene, 0.5 mM VPA, 9 min
[14] = prolyl oligopeptidase (PO) ablated cells, 0.5 mM VPA, 9 min
[15] = rPKA knockout mutant, 0.5 mM VPA, 9 min

With `CCCC(CCC)C(=O)O` [VPA, 2-propylpentanoic acid, reference compound] the EC50 ([1]; 3H arachidonic acid, read-out: EC50 of increase in uptake of AA) was 47 µM, the EC50 ([1]; 3H palmitic acid, read-out: EC50 of increase in uptake of palmitic acid) was 160 µM and the “fatty acid uptake in cell lines lacking fcsA” value ([1]; fcsA -/- cells, 0.5 mM VPA) was “increase”. The “effect on development of Dictyostelium” value [2] was “inhibits the development”, the “reduction in radio-labelled PIP2 turnover” value [3, 10] was 49% and the “reduction in radio-labelled PIP turnover” value [3, 10] was 49%. For the same compound, the “reduction of PIP2 turnover” value ([3]; 0.5 mM VPA, 9 min treatment) was 79%, the “reduction of PIP turnover” value ([3]; 0.5 mM VPA, 9 min treatment) was 68% and the “reduction in PIP2 turnover” value ([3]; 0.5 mM VPA, 60 min treatment) was 94%. For the same compound, the “reduction in PIP turnover” value ([3]; 0.5 mM VPA, 60 min treatment) was 94%, the “reduction of PIP2 production compared to untreated cells” value [3, 11] was 70% and the “reduction of PIP production compared to untreated cells” value [3, 11] was 48%. It also gave an activity at 500 µM ([3]; Dictyostelium, read-out: PIP Level (% control), Table 1, 0.5 mM compound, 3 min pre-treatment + 6 min labelling, wild type Dictyostelium) of 32%, an activity at 500 µM ([3]; Dictyostelium, read-out: PIP level % control, Table 2, VPA and straight chain acids in Dictyostelium) of 32% and an EC50 ([3]; Dictyostelium, 0.15 h, read-out: EC50 of inhibition of phosphoinositide turnover) of 154 µM. For the same compound, the inhibition at 250 µM ([3]; Dictyostelium, 0.15 h, read-out: inhibition of PIP2 turnover) was 42%, the inhibition at 250 µM ([3]; Dictyostelium, 0.15 h, read-out: inhibition of PIP turnover) was 25% and the “reduction in PIP2 synthesis compared to untreated cells” value [3, 12] was 68%. The “reduction in PIP synthesis compared to untreated cells” value [3, 12] was 54%, the “reduction in PIP2 signalling” value [3, 13] was 75% and the “reduction in PIP signalling” value [3, 13] was 73%. For the same compound, the “reduction in PIP2 signalling” value [3, 14] was 68%, the “reduction in PIP signalling” value [3, 14] was 66% and the “additional reduction of PIP2 production compared to untreated cells” value [3, 15] was 33%. For the same compound, the “additional reduction of PIP production compared to untreated cells” value [3, 15] was 72%, the pKa [4] was 4.6 and the “intensity and diameter of fluorescent lipid droplets compared to untreated cells” value [5] was “increase”. The “frequency of epileptiform discharges (seizure discharge frequency)” value [6] was 75.1±1.7%, the “treatment time required for depletion of inositol trisphosphate” value [7] was 6 h and the activity at 500 µM ([8]; Dictyostelium, 0.5 h, Table 3, 3H-AA labelled cells, 30 min, 0.5 mM treatment, read-out: AA release [% of control]) was 50%. The IC50 ([8]; Dictyostelium, 3H arachidonic acid labelled cells, read-out: IC50 of decrease in radiolabel release) was 89 µM, the IC50 ([8]; Dictyostelium, 3H palmitic acid labelled cells, read-out: IC50 of inhibition of tritiated palmitic acid release) was 163 µM and the “radiolabel release activity relative to control” value ([8]; Table 3, 30 min, 0.5 mM) was 50 % of control. The “concentration in plasma in therapeutic use” value ([9]; DSM IV, 2000) was 400 to 700 µM and the “concentration in plasma of patients receiving treatment” value ([9]; Silva et al., 2008) was 280 to 700 µM.
